Results on 14 compounds are retold here after patent US12187709B2 (Genentech, Inc., priority 2021, dated 2025).

One assay has as its target Cbl-b (Homo sapiens (Human), UniProt Q13191). Description: Cbl-b LCK Ub TR-FRET assay (Cbl-b Lck HTRF). Format: biochemical. The settings on record: for IC50: Cbl-b LCK Ub TR-FRET; for fold-selectivity (Cbl-b over C-cbl): ratio C-cbl Lck HTRF IC50 / Cbl-b Lck HTRF IC50. A digest of the protocol: (§1)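 After the ubiquitination reaction, detection mixture was added and plates incubated 20 min at room temperature before reading. IC50 values were calculated with wells lacking LCK as the low control and DMSO as the high control.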
(In TR-FRET formats the signal depends on donor and acceptor labels being close together.)

In the next assay the target is c-Cbl (Homo sapiens (Human), UniProt P22681). The assay is described as follows: C-Cbl LCK Ub TR-FRET assay (C-cbl Lck HTRF). Format: biochemical. A digest of the protocol:
as §1

For assay [1], the target named is Human Cbl-b (residues 40-426) (Homo sapiens (Human), UniProt Q13191). Description: Cbl-b SPR assay. Format: binding. The following applies: for Fold of selectivity: C-cbl SPR Kd vs Cbl-b SPR Kd; for Kd: SPR, 20° C. The essentials: (§2)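 SPR, multi-cycle, 6-pt 2-fold series, blanks flanking for double referencing; capture 1300-1500 RU; contact 60 s at 40 μl/min; dissoc. 120-1200 s (~4-5 half-lives). 1:1 fit. Chaser variant: single cycle, 5 conc., top 500 nM, 120 s contact, 450 s dissociation.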
In general terms: In SPR one partner is held on a chip, and binding of the other changes the refractive index at the surface.

The next assay deals with c-Cbl (residues 47-435) (Homo sapiens (Human), UniProt P22681). The assay is described as follows: c-Cbl SPR assay. Format: binding. The settings on record: 20° C. A digest of the protocol: as §2
c-Cbl (residues 47-435), sequence (P22681 47-435): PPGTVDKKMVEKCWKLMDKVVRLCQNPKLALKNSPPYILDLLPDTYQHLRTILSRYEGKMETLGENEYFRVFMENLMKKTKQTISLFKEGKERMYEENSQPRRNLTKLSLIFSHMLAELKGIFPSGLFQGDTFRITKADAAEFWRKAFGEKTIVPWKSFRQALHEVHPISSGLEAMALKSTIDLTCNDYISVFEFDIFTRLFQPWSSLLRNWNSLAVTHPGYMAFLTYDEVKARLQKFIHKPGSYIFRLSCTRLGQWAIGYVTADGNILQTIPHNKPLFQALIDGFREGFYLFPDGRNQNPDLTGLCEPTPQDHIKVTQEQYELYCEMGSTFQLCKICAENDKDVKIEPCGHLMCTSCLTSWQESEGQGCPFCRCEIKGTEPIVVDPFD

c-Cbl, sequence (P22681 47-435): as above
Human Cbl-b (residues 40-426), sequence (Q13191 40-426): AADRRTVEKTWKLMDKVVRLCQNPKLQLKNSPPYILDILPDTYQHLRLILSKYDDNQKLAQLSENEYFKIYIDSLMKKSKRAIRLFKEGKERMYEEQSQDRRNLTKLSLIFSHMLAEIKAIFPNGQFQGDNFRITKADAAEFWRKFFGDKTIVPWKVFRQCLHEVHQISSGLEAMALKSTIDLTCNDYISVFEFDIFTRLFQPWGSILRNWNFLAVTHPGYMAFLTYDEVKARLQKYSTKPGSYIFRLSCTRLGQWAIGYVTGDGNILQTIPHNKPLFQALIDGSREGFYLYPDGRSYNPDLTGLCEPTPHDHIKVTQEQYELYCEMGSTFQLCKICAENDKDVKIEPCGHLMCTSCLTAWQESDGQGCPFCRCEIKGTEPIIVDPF
Cbl-b, sequence (Q13191 40-426): as above

Turning to `Cn1cnnc1[C@]1(c2cccc(N3Cc4c(cc(CNC5(C)CCC5)cc4C(F)(F)F)C3=O)c2)C[C@](C)(O)C1` [Compound 26, 2-(3-((1s,3s)-3-hydroxy-3-methyl-1-(4-methyl-4H-1,2,4-triazol-3-yl)cyclobutyl)phenyl)-6-(((1-methylcyclobutyl)amino)methyl)-4-(trifluoromethyl)isoindolin-1-one], the figures for the IC50 at Cbl-b and on c-Cbl were 30 nM and 99 nM, respectively. Besides, the “fold-selectivity (Cbl-b over C-cbl)” value at Cbl-b is reported as “(3.3x)”. The same compound came in with a Fold of selectivity in assay [1] of 9.0×. The results for the Kd (in assay [1]; at c-Cbl (residues 47-435)) were 10 nM and 90 nM, respectively.
Turning to `Cn1cnnc1[C@]1(c2cccc(N3Cc4c(cc(CNC5(C)CCC5)cc4C(F)(F)F)C3=O)c2)C[C@@](C)(O)C1` [Compound 27, 2-(3-((1r,3r)-3-hydroxy-3-methyl-1-(4-methyl-4H-1,2,4-triazol-3-yl)cyclobutyl)phenyl)-6-(((1-methylcyclobutyl)amino)methyl)-4-(trifluoromethyl)isoindolin-1-one], at Cbl-b, the IC50 amounted to 170 nM and the “fold-selectivity (Cbl-b over C-cbl)” value is “(3.0x)”. At c-Cbl, this compound returned an IC50 of 510 nM. Moreover, in assay [1], the Fold of selectivity stood at 7.2× and the affinity, expressed as Kd, was 60 nM. The compound also came in with a Kd on c-Cbl (residues 47-435) of 430 nM.
For the compound `CO[C@]1(C)C[C@@](c2cccc(N3Cc4c(cc(CNC5(C)CCC5)cc4C(F)(F)F)C3=O)c2)(c2nncn2C)C1` [Compound 28, 2-(3-((1r,3r)-3-methoxy-3-methyl-1-(4-methyl-4H-1,2,4-triazol-3-yl)cyclobutyl)phenyl)-6-(((1-methylcyclobutyl)amino)methyl)-4-(trifluoromethyl)isoindolin-1-one], the IC50 was 13 nM against Cbl-b and 35 nM against c-Cbl. In addition, on Cbl-b, the “fold-selectivity (Cbl-b over C-cbl)” value is reported as “(2.7x)”. Further, the Fold of selectivity in assay [1] stood at 5.5×. Moreover, the values for the Kd (in assay [1]; at c-Cbl (residues 47-435)) were 2.5 nM and 13 nM, respectively.
`Cn1cnnc1[C@]1(c2cccc(N3Cc4c(cc(CNC5(C)CCC5)cc4C(F)(F)F)C3=O)c2)C[C@](C)(F)C1` [Compound 30, 2-(3-((1s,3s)-3-fluoro-3-methyl-1-(4-methyl-4H-1,2,4-triazol-3-yl)cyclobutyl)phenyl)-6-(((1-methylcyclobutyl)amino)methyl)-4-(trifluoromethyl)isoindolin-1-one]: at Cbl-b, half-maximal inhibition (IC50) required 17 nM and the “fold-selectivity (Cbl-b over C-cbl)” value is on record as “(1.6x)”. For the same compound, on c-Cbl, the IC50 came to 27 nM. In assay [1], this compound returned a Fold of selectivity of 3.8× and a Kd of 2.6 nM. On c-Cbl (residues 47-435), the Kd was 9.8 nM.
Turning to `Cn1cnnc1[C@]1(c2cccc(N3Cc4c(cc(CNC5(C)CCC5)cc4C(F)(F)F)C3=O)c2)C[C@H](C)C1` [Compound 34, 2-(3-((1s,3s)-3-methyl-1-(4-methyl-4H-1,2,4-triazol-3-yl)cyclobutyl)phenyl)-6-(((1-methylcyclobutyl)amino)methyl)-4-(trifluoromethyl)isoindolin-1-one], the IC50 against Cbl-b worked out at 12 nM; against c-Cbl, 11 nM. Further, the “fold-selectivity (Cbl-b over C-cbl)” value at Cbl-b is “(0.94x)”. This compound registered a Fold of selectivity in assay [1] of 0.6×. For the same compound, the values for the Kd (in assay [1]; on c-Cbl (residues 47-435)) were 4 nM and 2.3 nM, respectively.
For `Cn1cnnc1[C@]1(c2cccc(N3Cc4c(cc(CNC5(C)CCC5)cc4C(F)(F)F)C3=O)c2)C[C@@H](C)C1` [Compound 35, 2-(3-((1r,3r)-3-methyl-1-(4-methyl-4H-1,2,4-triazol-3-yl)cyclobutyl)phenyl)-6-(((1-methylcyclobutyl)amino)methyl)-4-(trifluoromethyl)isoindolin-1-one], on Cbl-b, the IC50 was 9.1 nM and the “fold-selectivity (Cbl-b over C-cbl)” value is reported as “(0.97x)”. The IC50 on c-Cbl is 8.8 nM. In assay [1], this compound showed a Fold of selectivity of 3.4× and a Kd of 0.5 nM. Also, on c-Cbl (residues 47-435), the affinity, expressed as Kd, was 1.7 nM.
Consider `Cn1cnnc1[C@]1(c2cc(NC3CC(F)(F)C3)nc(N3Cc4c(cc(CNC5(C)CCC5)cc4C(F)(F)F)C3=O)c2)C[C@@H](C)C1` [Compound 48, 2-(6-((3,3-difluorocyclobutyl)amino)-4-((1r,3r)-3-methyl-1-(4-methyl-4H-1,2,4-triazol-3-yl)cyclobutyl)pyridin-2-yl)-6-(((1-methylcyclobutyl)amino)methyl)-4-(trifluoromethyl)isoindolin-1-one], for which the IC50 was determined as 10 nM against Cbl-b and 15 nM on c-Cbl. Besides, the “fold-selectivity (Cbl-b over C-cbl)” value on Cbl-b is reported as “(1.5x)”. The compound also registered a Fold of selectivity in assay [1] of 3.0×. Moreover, the Kd in assay [1] was found to be 3.8 nM; at c-Cbl (residues 47-435), 11 nM.
Regarding `Cn1cnnc1[C@]1(c2cc(NC3CC(F)(F)C3)nc(N3Cc4c(cc(CNC5(C)CCC5)cc4C(F)(F)F)C3=O)c2)C[C@H](C)C1` [Compound 49, 2-(6-((3,3-difluorocyclobutyl)amino)-4-((1s,3s)-3-methyl-1-(4-methyl-4H-1,2,4-triazol-3-yl)cyclobutyl)pyridin-2-yl)-6-(((1-methylcyclobutyl)amino)methyl)-4-(trifluoromethyl)isoindolin-1-one], at Cbl-b, the IC50 turned out to be 14 nM and the “fold-selectivity (Cbl-b over C-cbl)” value is reported as “(1.4x)”. The same compound showed an IC50 against c-Cbl of 19.6 nM. In assay [1], this compound displayed a Fold of selectivity of 7.0× and a Kd of 2.2 nM. For the same compound, at c-Cbl (residues 47-435), the Kd is 16 nM.
As to `Cn1cnnc1C1(c2cccc(N3Cc4c(cc(CNC5(C)CCC5)cc4C(F)(F)F)C3=O)c2)COC1` [Compound 58, 2-(3-(3-(4-methyl-4H-1,2,4-triazol-3-yl)oxetan-3-yl)phenyl)-6-(((1-methylcyclobutyl)amino)methyl)-4-(trifluoromethyl)isoindolin-1-one], the IC50 on Cbl-b came to 280 nM; against c-Cbl, 560 nM. Moreover, the “fold-selectivity (Cbl-b over C-cbl)” value on Cbl-b was “(2.0x)”. In addition, in assay [1], the Fold of selectivity is 3.1×. Further, the Kd in assay [1] worked out at 140 nM; at c-Cbl (residues 47-435), 440 nM.
Turning to `Cn1cnnc1C1(c2cccc(N3Cc4c(cc(CNC5(C)CCC5)cc4C(F)(F)F)C3=O)c2)CC(F)(F)C1` [Compound 61, 2-(3-(3,3-difluoro-1-(4-methyl-4H-1,2,4-triazol-3-yl)cyclobutyl)phenyl)-6-(((1-methylcyclobutyl)amino)methyl)-4-(trifluoromethyl)isoindolin-1-one], on Cbl-b, the midpoint of inhibition, the IC50, lay at 15 nM and the “fold-selectivity (Cbl-b over C-cbl)” value was “(1.7x)”. For the same compound, at c-Cbl, the IC50 amounted to 25.5 nM. In assay [1], this compound had a Fold of selectivity of 5.2× and a Kd of 3.7 nM. The compound further had a Kd on c-Cbl (residues 47-435) of 20 nM.
Regarding `Cn1cnnc1C1(c2cccc(N3Cc4c(cc(CNC5(C)CCC5)cc4C(F)(F)F)C3=O)c2)CC2(COC2)C1` [Compound 65, 2-(3-(6-(4-methyl-4H-1,2,4-triazol-3-yl)-2-oxaspiro[3.3]heptan-6-yl)phenyl)-6-(((1-methylcyclobutyl)amino)methyl)-4-(trifluoromethyl)isoindolin-1-one], the IC50 on Cbl-b worked out at 20 nM; at c-Cbl, 62 nM. In addition, on Cbl-b, the “fold-selectivity (Cbl-b over C-cbl)” value was “(3.1x)”. In assay [1], this compound displayed a Fold of selectivity of 19×. For the same compound, the Kd in assay [1] came to 3.7 nM; at c-Cbl (residues 47-435), 68 nM.
Turning to `Cn1cnnc1[C@]1(c2cc(NC3CCC3)nc(N3Cc4c(cc(CNC5(C)CCC5)cc4C(F)(F)F)C3=O)c2)C[C@H](C)C1` [Compound 67, 2-(6-(cyclobutylamino)-4-((1S,3S)-3-methyl-1-(4-methyl-4H-1,2,4-triazol-3-yl)cyclobutyl)pyridin-2-yl)-6-(((1-methylcyclobutyl)amino)methyl)-4-(trifluoromethyl)isoindolin-1-one], the values for the IC50 on Cbl-b and on c-Cbl were 6.5 nM and 5.9 nM, respectively. Further, the “fold-selectivity (Cbl-b over C-cbl)” value on Cbl-b is recorded as “(0.9x)”. The compound further came in with a Fold of selectivity in assay [1] of 1.5×. Also, the Kd in assay [1] worked out at 0.36 nM; on c-Cbl (residues 47-435) it was 0.53 nM.
On to `Cn1cnnc1[C@]1(c2cc(NC3CCC3)nc(N3Cc4c(cc(CNC5(C)CCC5)cc4C(F)(F)F)C3=O)c2)C[C@@H](C)C1` [Compound 68, 2-(6-(cyclobutylamino)-4-((1R,3R)-3-methyl-1-(4-methyl-4H-1,2,4-triazol-3-yl)cyclobutyl)pyridin-2-yl)-6-(((1-methylcyclobutyl)amino)methyl)-4-(trifluoromethyl)isoindolin-1-one], for which, on Cbl-b, the IC50 turned out to be 8.5 nM and the “fold-selectivity (Cbl-b over C-cbl)” value is on record as “(0.8x)”. For the same compound, on c-Cbl, the midpoint of inhibition, the IC50, lay at 7.1 nM. In assay [1], this compound yielded a Fold of selectivity of 4.3× and a Kd of 0.24 nM. On c-Cbl (residues 47-435), this compound showed a Kd of 1 nM.
In the case of `CO[C@H]1C[C@@](c2cc(NC3CCCC3)nc(N3Cc4c(cc(CNC5(C)CCC5)cc4C(F)(F)F)C3=O)c2)(c2nncn2C)C1` [Compound 69, 2-(6-(cyclopentylamino)-4-((1S,3S)-3-methoxy-1-(4-methyl-4H-1,2,4-triazol-3-yl)cyclobutyl)pyridin-2-yl)-6-(((1-methylcyclobutyl)amino)methyl)-4-(trifluoromethyl)isoindolin-1-one], at Cbl-b, the IC50 is 11 nM and the “fold-selectivity (Cbl-b over C-cbl)” value is reported as “(4.9x)”. Besides, the IC50 against c-Cbl was found to be 54 nM. In addition, in assay [1], the Fold of selectivity is recorded as 6.9× and binding was put at a Kd of 3.3 nM. On c-Cbl (residues 47-435), the Kd is 23 nM.

Broadly, the IC50 is the concentration that gives 50% inhibition. Low readings indicate inhibition by little substance, high ones a need for much substance. What is called Kd is the equilibrium constant for the complex coming apart.
